Measurements as given in the supplement of paper PMC8967900.

Assays:
Assay in all cases: selective drug sensitivity score (sDSS, relative to normal bone marrow) (sDSS (score)); higher = more potent and effective on the cell line relative to normal bone marrow cells
Settings in all cases: 72 h
KASUMI-10 = system: KASUMI-10
ALL-PO = system: ALL-PO
CCRF-CEM = system: CCRF-CEM
P12-ICHIKAWA = system: P12-ICHIKAWA
DND-41 = system: DND-41
TANOUE = system: TANOUE
COG-LL-394h = system: COG-LL-394h
CCRF-HSB2 = system: CCRF-HSB2
PF-382 = system: PF-382
COG-LL-332h = system: COG-LL-332h
TMD5 = system: TMD5
380 = system: 380
MHH-CALL-4 = system: MHH-CALL-4
MN-60 = system: MN-60
MOLT-4 = system: MOLT-4
KASUMI-9 = system: KASUMI-9
HPB-ALL = system: HPB-ALL
KOPN-8 = system: KOPN-8
RCH-ACV = system: RCH-ACV
KARPAS-45 = system: KARPAS-45
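Note: ALL cell lines in 384-well plates, five doses spanning 10,000-fold, each plate scaled between vehicle and 100 µmol/L benzalkonium chloride controls, sDSS an adapted area-under-curve metric.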

SMILES | selective drug sensitivity score (KASUMI-10) | selective drug sensitivity score (ALL-PO) | selective drug sensitivity score (CCRF-CEM) | selective drug sensitivity score (P12-ICHIKAWA) | selective drug sensitivity score (DND-41) | selective drug sensitivity score (TANOUE) | selective drug sensitivity score (COG-LL-394h) | selective drug sensitivity score (CCRF-HSB2) | selective drug sensitivity score (PF-382) | selective drug sensitivity score (COG-LL-332h) | selective drug sensitivity score (TMD5) | selective drug sensitivity score 380 | selective drug sensitivity score (MHH-CALL-4) | selective drug sensitivity score (MN-60) | selective drug sensitivity score (MOLT-4) | selective drug sensitivity score (KASUMI-9) | selective drug sensitivity score (HPB-ALL) | selective drug sensitivity score (KOPN-8) | selective drug sensitivity score (RCH-ACV) | selective drug sensitivity score (KARPAS-45)
CC(O)(CS(=O)(=O)c1ccc(F)cc1)C(=O)Nc1ccc(C#N)c(C(F)(F)F)c1 (stereo not given) [Bicalutamide] (top concentration 10000 nM) | -1.68 | 3.92 | -0.38 | -0.88 | -1.68 | -1.28 | -0.18 | -1.28 | -1.38 | 0.72 | -0.88 | 1.72 | -1.68 | 1.42 | 2.32 | 0.52 | -1.68 | 4.92 | -1.68 | -0.88
COc1cc(Nc2c(C#N)cnc3cc(OCCCN4CCN(C)CC4)c(OC)cc23)c(Cl)cc1Cl [Bosutinib] (top concentration 10000 nM) | -1.14 | 0.36 | -0.74 | 0.96 | 0.06 | -7.74 | 1.16 | 27 | 4.76 | 6.56 | 9.06 | -0.64 | -3.14 | -3.24 | -0.64 | 4.06 | -2.64 | 4.56 | 5.76 | 2.46
Cc1cc2c(F)c(Oc3ncnn4cc(OC[C@@H](C)O)c(C)c34)ccc2[nH]1 [Brivanib] (top concentration 1000 nM) | -0.04 | -0.04 | -0.04 | 1.56 | -0.04 | -0.04 | -0.04 | -0.04 | 0.06 | 0.16 | -0.04 | -0.04 | -0.04 | 2.76 | -0.04 | -0.04 | -0.04 | 0.16 | 1.96 | 0.06
Cc1ccc(-c2cc(C(F)(F)F)nn2-c2ccc(S(N)(=O)=O)cc2)cc1 [Celecoxib] (top concentration 10000 nM) | -0.06 | 2.84 | -0.06 | 0.24 | 1.24 | -0.06 | -0.06 | -0.06 | 0.24 | 0.34 | 1.34 | 7.74 | -0.06 | -0.06 | 0.14 | -0.06 | -0.06 | 0.74 | 0.64 | 0.34
N.N.[Cl][Pt][Cl] [Cisplatin] (top concentration 100000 nM) | 12 | 8.44 | 15.3 | 12.7 | 9.54 | -3.16 | 0.54 | 21 | 10.2 | 19.4 | 1.24 | 7.54 | 10.7 | -0.56 | 16.2 | 12.3 | 7.14 | 21.7 | 20.5 | 5.84
Cc1c2oc3c(C)ccc(C(=O)N[C@@H]4C(=O)N[C@H](C(C)C)C(=O)N5CCC[C@H]5C(=O)N(C)CC(=O)N(C)[C@@H](C(C)C)C(=O)O[C@@H]4C)c3nc-2c(C(=O)N[C@@H]2C(=O)N[C@H](C(C)C)C(=O)N3CCC[C@H]3C(=O)N(C)CC(=O)N(C)[C@@H](C(C)C)C(=O)O[C@@H]2C)c(N)c1=O [Dactinomycin] (top concentration 1000 nM) | 17.6 | 8.24 | 7.04 | 0.44 | 11 | -11.2 | 12.2 | 15.7 | 3.64 | 14.5 | 7.84 | 17.2 | 11.6 | 8.94 | 17.3 | 19.4 | 6.14 | 17.8 | 18.5 | 8.44
O=C(O)CCCCC(CCSCc1ccccc1)SCc1ccccc1 (stereo not given) [Devimistat (CPI-613)] (top concentration 10000 nM) | 0 | 0 | 0 | 0 | 0.6 | 1.8 | 0 | 0.3 | 0 | 0 | 0 | 1.9 | 0 | 0.1 | 0 | 0 | 0 | 0 | 0 | 0
CC(=O)O[C@@]12CO[C@@H]1C[C@H](O)[C@@]1(C)C(=O)[C@H](O)C3=C(C)[C@@H](OC(=O)[C@H](O)[C@@H](NC(=O)OC(C)(C)C)c4ccccc4)C[C@@](O)([C@@H](OC(=O)c4ccccc4)[C@H]21)C3(C)C [Docetaxel] (top concentration 1000 nM) | 14.6 | 15.5 | 19.8 | 19.1 | 3.3 | -11.8 | 8.5 | 19.3 | 10.5 | 22.2 | 8.5 | 22.4 | 8.2 | -1 | 14.8 | 21 | 12.5 | 23.7 | 22.6 | 17.1
Cc1ccc(-n2nc(C(C)(C)C)cc2NC(=O)Nc2ccc(OCCN3CCOCC3)c3ccccc23)cc1 [Doramapimod] (top concentration 10000 nM) | 1.16 | 4.16 | -0.24 | 0.26 | -0.24 | 1.16 | 2.16 | 2.76 | 0.46 | 4.36 | -0.14 | -0.24 | -0.24 | 0.66 | 2.46 | 4.56 | 2.76 | 3.76 | 4.56 | -0.24
Cc1ccc(NS(=O)(=O)c2cccc(C#N)c2)c2[nH]cc(C#N)c12 [E7820] (top concentration 50000 nM) | 4.62 | 4.92 | 9.12 | 15.4 | 9.82 | -6.28 | -1.58 | 18 | 10.2 | 22.1 | 7.32 | 30.8 | 7.62 | -1.88 | 1.82 | 12.7 | 11 | 19.8 | 23.2 | 20.1
C[C@@H]1CN(C(=O)c2ccc(NC(=O)c3cc(O[C@H](C)c4c(Cl)ccc(F)c4Cl)c(N)nn3)cc2)C[C@H](C)N1 [Ensartinib] (top concentration 1000 nM) | -2.84 | 0.26 | -0.34 | -2.54 | -2.84 | -2.84 | 0.86 | -0.64 | -2.64 | 2.76 | -1.84 | 0.06 | -2.84 | -2.84 | -0.54 | 0.76 | -2.84 | 1.16 | -1.44 | 2.36
c1cn2cc(-c3ccc4cn[nH]c4c3)nc(Nc3ccc(N4CCOCC4)cc3)c2n1 [Entospletinib] (top concentration 5000 nM) | -0.64 | 7.26 | -0.64 | -0.64 | -0.64 | -0.64 | -0.64 | -0.64 | -0.64 | -0.64 | -0.64 | -0.64 | -0.64 | -0.64 | -0.64 | 2.96 | -0.64 | 1.46 | 12.3 | -0.64
COc1cc([C@@H]2c3cc4c(cc3[C@@H](O[C@@H]3O[C@@H]5CO[C@@H](C)O[C@H]5[C@H](O)[C@H]3O)[C@H]3COC(=O)[C@H]23)OCO4)cc(OC)c1O [Etoposide] (top concentration 10000 nM) | 13 | 5.44 | 20.2 | 18.9 | 11.3 | -6.26 | 7.04 | 26 | 13.5 | 22.7 | 5.24 | 21.3 | 10.2 | -0.86 | 23.5 | 16.3 | 7.74 | 24.9 | 25.1 | 7.24
CCCCCCCCc1ccc(CCC(N)(CO)CO)cc1 [Fingolimod] (top concentration 10000 nM) | -0.72 | 2.28 | 0.98 | -0.92 | 1.28 | 0.78 | 1.68 | 0.48 | -0.62 | 1.38 | 0.48 | -1.12 | 1.58 | 1.28 | 1.78 | 0.08 | 1.68 | 3.18 | 0.98 | -0.02
O=C(NOCCO)c1ccc2cncn2c1Nc1ccc(I)cc1F [GDC-0623] (top concentration 2500 nM) | -3.4 | -3.3 | -1 | -1.7 | 0.2 | -3.4 | -3.4 | 0.8 | -3.3 | -1.8 | -0.7 | -0.4 | -2.1 | -3.4 | -3.3 | -0.4 | 3.6 | -1.2 | -3.4 | -3.1
C[C@H]1CN(C2COC2)CCN1c1ccc(Nc2cc(-c3ccnc(N4CCn5c(cc6c5CC(C)(C)C6)C4=O)c3CO)cn(C)c2=O)nc1 [GDC-0853] (top concentration 1000 nM) | 0 | 0 | 0 | 0 | 0 | 0 | 0 | 0 | 0 | 0 | 0 | 0 | 0.2 | 0 | 0 | 0 | 0.4 | 0 | 0 | 0
CCNc1nc(Nc2cc(F)c(C(=O)N3CCOCC3)cc2OC)ncc1C(F)(F)F [GNE-7915] (top concentration 1000 nM) | -0.06 | -0.06 | -0.06 | -0.06 | -0.06 | -0.06 | -0.06 | -0.06 | -0.06 | -0.06 | 5.44 | -0.06 | -0.06 | -0.06 | -0.06 | -0.06 | -0.06 | -0.06 | -0.06 | -0.06
